# Key:
# mu opioid receptor (MOR) [1] = target: T1, mu opioid receptor (MOR) (Homo sapiens, UniProt P35372); assay: PathHunter β-arrestin recruitment assay, PAM mode with EC20 endomorphin-1; format: cell-based; conditions: for β-arr Max. Resp.: maximal response for β-arrestin recruitment; for EC50: β-arrestin recruitment, read-out: β-arr. EC50
# How it was run: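 β-Arrestin recruitment to the receptor was tracked by chemiluminescent β-galactosidase activity from complementing fragments (ED on receptor, EA on β-arrestin). Per-compound outputs were EC50 and percent maximal response.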
# mu opioid receptor (MOR) [2] = target: T1, mu opioid receptor (MOR); assay: Hit Hunter cAMP signaling assay (adenylyl cyclase inhibition), PAM mode with EC20 endomorphin-1; format: cell-based; conditions: for EC50: cAMP EC50, adenylyl cyclase inhibition; for cAMP Max. Resp.: maximal response for adenylyl cyclase inhibition
# T1 sequence (P35372 whole entry, the tested form may be a part): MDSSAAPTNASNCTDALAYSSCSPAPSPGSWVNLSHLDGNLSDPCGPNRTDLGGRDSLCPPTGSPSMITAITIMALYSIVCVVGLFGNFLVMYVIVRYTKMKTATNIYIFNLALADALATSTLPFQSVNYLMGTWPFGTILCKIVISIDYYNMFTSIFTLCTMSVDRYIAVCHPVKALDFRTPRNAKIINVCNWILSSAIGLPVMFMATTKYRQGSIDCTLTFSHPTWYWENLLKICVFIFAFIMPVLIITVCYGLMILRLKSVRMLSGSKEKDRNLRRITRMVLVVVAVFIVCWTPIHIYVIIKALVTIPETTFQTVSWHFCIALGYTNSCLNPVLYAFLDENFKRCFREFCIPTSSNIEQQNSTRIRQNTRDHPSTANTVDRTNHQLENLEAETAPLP
SMILES,β-arr Max. Resp. (mu opioid receptor (MOR) [1]),EC50 (mu opioid receptor (MOR) [1]) [nM],EC50 (mu opioid receptor (MOR) [2]) [nM],cAMP Max. Resp. (mu opioid receptor (MOR) [2])
Fc1cnc(Cl)nc1N1CCCCC1c1ccc2ncccc2c1 (stereo not shown) [compound 326],D (D represents a maximal response of < 40%),< 700,< 700,D (D represents a maximal response of < 40%)
Fc1cnc(Cl)nc1N1CCCCC1c1cc(F)c(F)c(F)c1 (stereo not shown) [compound 327],D (D represents a maximal response of < 40%),< 700,< 700,D (D represents a maximal response of < 40%)
Fc1cnc(Cl)nc1N1CCCCC1c1ccnc(Cl)c1 (stereo not shown) [compound 328],D (D represents a maximal response of < 40%),< 700,< 700,D (D represents a maximal response of < 40%)
Fc1cnc(Cl)nc1N1CCCCC1c1ccccn1 (stereo not shown) [compound 329],D (D represents a maximal response of < 40%),< 700,< 700,D (D represents a maximal response of < 40%)
Cc1cncc(C2CCCCN2c2nc(Cl)ncc2F)c1 (stereo not shown) [compound 330],D (D represents a maximal response of < 40%),< 700,< 700,D (D represents a maximal response of < 40%)
Fc1cnc(Cl)nc1N1CCCCC1c1ccc(Cl)c(Cl)c1 (stereo not shown) [compound 331],D (D represents a maximal response of < 40%),< 700,< 700,D (D represents a maximal response of < 40%)
Fc1cnc(Cl)nc1N1CCCCC1c1cnccc1C(F)(F)F (stereo not shown) [compound 332],D (D represents a maximal response of < 40%),< 700,< 700,D (D represents a maximal response of < 40%)
Fc1cnc(Cl)nc1N1CCCCC1c1cccc2cnnn12 (stereo not shown) [compound 333],D (D represents a maximal response of < 40%),< 700,< 700,D (D represents a maximal response of < 40%)
Fc1cnc(Cl)nc1N1CCCCC1c1ccc2cncn2c1 (stereo not shown) [compound 334],D (D represents a maximal response of < 40%),< 700,< 700,D (D represents a maximal response of < 40%)
Fc1cnc(Cl)nc1N1CCCCC1c1cccnc1F (stereo not shown) [compound 335],D (D represents a maximal response of < 40%),< 700,< 700,D (D represents a maximal response of < 40%)
Fc1cnc(Cl)nc1N1CCCCC1c1cnc2ccccn12 (stereo not shown) [compound 336],D (D represents a maximal response of < 40%),< 700,< 700,D (D represents a maximal response of < 40%)
Fc1cnc(Cl)nc1N1CCCCC1c1cnc2cccnn12 (stereo not shown) [compound 337],D (D represents a maximal response of < 40%),< 700,< 700,D (D represents a maximal response of < 40%)
Fc1cnc(Cl)nc1N1CCCCC1c1cnc2cnccn12 (stereo not shown) [compound 338],D (D represents a maximal response of < 40%),< 700,< 700,D (D represents a maximal response of < 40%)
Fc1cnc(Cl)nc1N1CCCCC1c1nc2ccccc2s1 (stereo not shown) [compound 340],D (D represents a maximal response of < 40%),< 700,< 700,D (D represents a maximal response of < 40%)
Fc1cnc(Cl)nc1N1CCCCC1c1ccc2ncsc2c1 (stereo not shown) [compound 341],D (D represents a maximal response of < 40%),< 700,< 700,D (D represents a maximal response of < 40%)
Oc1ncc(F)c(N2CCCCC2c2cccc(C(F)(F)F)c2)n1 (stereo not shown) [compound 349],D (D represents a maximal response of < 40%),< 700,< 700,D (D represents a maximal response of < 40%)
Oc1ncc(F)c(N2CCCCC2c2cccc(C(F)(F)F)c2)n1 (stereo not shown) [compound 350],D (D represents a maximal response of < 40%),< 700,,D (D represents a maximal response of < 40%)
Fc1c(Cl)ncnc1N1CCCCC1c1cccc(C(F)(F)F)c1 (stereo not shown) [compound 351],D (D represents a maximal response of < 40%),< 700,< 700,D (D represents a maximal response of < 40%)
Fc1cnc(Cl)nc1N1CCCCC1c1cc(C(F)(F)F)c2[nH]ncc2c1 (stereo not shown) [compound 352],D (D represents a maximal response of < 40%),< 700,< 700,D (D represents a maximal response of < 40%)

SMILES,β-arr Max. Resp. (mu opioid receptor (MOR) [1]),EC50 (mu opioid receptor (MOR) [1]) [nM],EC50 (mu opioid receptor (MOR) [2]) [nM],cAMP Max. Resp. (mu opioid receptor (MOR) [2])
Fc1ccc(C(F)(F)F)cc1C1CCCCN1c1nc(Cl)ncc1F (stereo not shown) [compound 353],D (D represents a maximal response of < 40%),< 700,< 700,D (D represents a maximal response of < 40%)
Fc1cnc(Cl)nc1N1CCCCC1c1c(C(F)(F)F)ccc(F)c1Br (stereo not shown) [compound 354],D (D represents a maximal response of < 40%),< 700,< 700,D (D represents a maximal response of < 40%)
Fc1cnc(Cl)nc1N1CCCCC1c1cccc(C(F)(F)F)c1F (stereo not shown) [compound 355],D (D represents a maximal response of < 40%),< 700,< 700,D (D represents a maximal response of < 40%)
Oc1ncnc(N2CCCCC2c2cccc(C(F)(F)F)c2)c1F (stereo not shown) [compound 356],D (D represents a maximal response of < 40%),< 700,< 700,D (D represents a maximal response of < 40%)
Fc1cnc(Cl)nc1C1CCCCN1c1nc(Cl)ncc1F (stereo not shown) [compound 357],D (D represents a maximal response of < 40%),< 700,< 700,D (D represents a maximal response of < 40%)
Cc1noc(C2CCCCN2c2nc(Cl)ncc2F)n1 (stereo not shown) [compound 358],D (D represents a maximal response of < 40%),< 700,< 700,D (D represents a maximal response of < 40%)
FC(F)(F)c1cccc(C2CCCCN2c2ccnc(Cl)c2)c1 (stereo not shown) [compound 359],D (D represents a maximal response of < 40%),< 700,< 700,D (D represents a maximal response of < 40%)
FC(F)(F)c1cccc(C2CCCCN2c2cc(Cl)ncn2)c1 (stereo not shown) [compound 360],D (D represents a maximal response of < 40%),< 700,< 700,D (D represents a maximal response of < 40%)
COc1cnc(Cl)nc1N1CCCCC1c1cccc(C(F)(F)F)c1 (stereo not shown) [compound 361],D (D represents a maximal response of < 40%),< 700,< 700,D (D represents a maximal response of < 40%)
Fc1cnc(Cl)nc1N1CCCCC1c1ccccc1 (stereo not shown) [compound 362],D (D represents a maximal response of < 40%),< 700,< 700,D (D represents a maximal response of < 40%)
Cc1nnc(C2CCCCN2c2nc(Cl)ncc2F)o1 (stereo not shown) [compound 363],D (D represents a maximal response of < 40%),< 700,< 700,D (D represents a maximal response of < 40%)
Cc1cnc(C2CCCCN2c2nc(Cl)ncc2F)o1 (stereo not shown) [compound 364],D (D represents a maximal response of < 40%),< 700,< 700,D (D represents a maximal response of < 40%)
Fc1c(C2CCCCN2c2ccnc(Cl)n2)cccc1C(F)(F)F (stereo not shown) [compound 365],D (D represents a maximal response of < 40%),< 700,< 700,D (D represents a maximal response of < 40%)
Cc1coc(C2CCCCN2c2nc(Cl)ncc2F)n1 (stereo not shown) [compound 366],D (D represents a maximal response of < 40%),< 700,< 700,D (D represents a maximal response of < 40%)
Fc1ncc(F)c(N2CCCCC2c2cccc(C(F)(F)F)c2)n1 (stereo not shown) [compound 368],D (D represents a maximal response of < 40%),< 700,< 700,D (D represents a maximal response of < 40%)
Fc1cnc(Cl)nc1N1CCCCC1c1cccc(Cl)c1F (stereo not shown) [compound 369],D (D represents a maximal response of < 40%),< 700,< 700,D (D represents a maximal response of < 40%)
Fc1cncc(C2CCCCN2c2nc(Cl)ncc2F)c1 (stereo not shown) [compound 370],D (D represents a maximal response of < 40%),< 700,< 700,D (D represents a maximal response of < 40%)
Fc1cnc(Cl)nc1N1CCCCC1c1ccc2c(c1)CCO2 (stereo not shown) [compound 371],D (D represents a maximal response of < 40%),< 700,< 700,D (D represents a maximal response of < 40%)
Fc1ccc(C2CCCCN2c2nc(Cl)ncc2F)nc1 (stereo not shown) [compound 372],D (D represents a maximal response of < 40%),< 700,< 700,D (D represents a maximal response of < 40%)

# From patent publication US11071731B2, “Allosteric modulators of the mu opioid receptor” (Chiromics, LLC, priority 2017, dated 2021)
